Values quoted from earlier work as cited in patent US20050065175A1 (Xanodyne Pharmacal, Inc., priority 2003, published 2005).
Where a name gives a salt, the structure may show the parent alone.

What was measured:
[1] = water and ethanol
[2] = orally administered tablets, absorption through GI tract

In the case of CCC(=O)C(CC(C)N(C)C)(c1ccccc1)c1ccccc1 (stereo not shown) [Methadone hydrochloride], the solubility [1] is given as “soluble in water and ethanol”.
For CCC(=O)C(CC(C)N(C)C)(c1ccccc1)c1ccccc1 (stereo not shown) [methadone], the “time until methadone can be detected in blood plasma after ingestion” value [2] is given as no more than 30 min, the “bioavailability of oral transmucosal methadone” value (oral cavity fluid pH between about 7 and about 10) is given as 50-75% and the “oral bioavailability of methadone” value (oral cavity pH about 8 to about 9) is given as no more than 75%. For the same compound, the “bioavailability via the oral transmucosal route” value (pH about 6.5 to about 6.9 (normal saliva)) was “about 34%”, the “bioavailability via the oral mucosa” value (pH of about 8.5) was “about 75%” and the “portion of the orally bioavailable methadone in the bloodstream” value (within the first 2.5 minutes of delivery to the mucosal tissue) was 50-70%.
